Columns and labels:
Format in all cases: in vivo, rat
Male Zucker fa/fa rats [1] = assay: Day-night profile of glycemia and insulinemia, day 16 to day 17 of treatment
Method: The parameters monitored were morning blood glucose and plasma insulin levels. […] An OGTT was performed finally on day 21 to monitor blood glucose and plasma insulin kinetics to assess changes in glucose tolerance. Glibenclamide (DAB 1996; R011150/33372) was donated by Berlin-Chemie (Berlin, Germany). Male Zucker (fa/fa) rats of the body weight class of 300 g were purchased from Charles River (Sulzfeld, Germany). […] Thereafter, the non-diabetic Wistar rats were treated orally once daily with RP (5 mg/kg b.w.) or TP (21.61 mg/kg b.w.) and the diabetic Zucker rats were treated orally once daily with RP (1 mg/kg b.w.) or TP (21.61 mg/kg b.w.) for 21 days at 05.00 p.m. (before regular food intake in the dark phase). The controls were given 1% cellulose solution orally (5 ml/kg). […] The oral drug therapy was continued for one week. […] Blood glucose: Glucose levels were measured using the glucose oxidase procedure (Super G Glukosemeβgerät; Dr. Müller Gerätebau, Freital, Germany). Plasma insulin: Insulin concentrations were assayed by the antibody RIA method (LINCO Research, Inc. St. Charles, Mo., USA).

Male Zucker fa/fa rats [2] = assay: OGTT after 21 days treatment: blood glucose and plasma insulin
Method: The parameters monitored were morning blood glucose and plasma insulin levels. […] An OGTT was performed finally on day 21 to monitor blood glucose and plasma insulin kinetics to assess changes in glucose tolerance. Glibenclamide (DAB 1996; R011150/33372) was donated by Berlin-Chemie (Berlin, Germany). Male Zucker (fa/fa) rats of the body weight class of 300 g were purchased from Charles River (Sulzfeld, Germany). Repeated Dosing: 30 male non-diabetic Wistar and 30 male diabetic Zucker rats were randomized to RP (Reference Product: glibenclamide)-, TP- (jest Product: […] Thereafter, the non-diabetic Wistar rats were treated orally once daily with RP (5 mg/kg b.w.) or TP (21.61 mg/kg b.w.) and the diabetic Zucker rats were treated orally once daily with RP (1 mg/kg b.w.) or TP (21.61 mg/kg b.w.) for 21 days at 05.00 p.m. (before regular food intake in the dark phase). The controls were given 1% cellulose solution orally (5 ml/kg). […] The oral drug therapy was continued for one week. […] OGTT: A final OGTT was performed on day 21 with blood sampling from the tail vein. […] The latter were immediately centrifuged and the plasma fractions were stored at −20 ° C. for insulin analysis. Blood glucose: Glucose levels were measured using the glucose oxidase procedure (Super G Glukosemeβgerät; Dr. Müller Gerätebau, Freital, Germany). Plasma insulin: Insulin concentrations were assayed by the antibody RIA method (LINCO Research, Inc. St. Charles, Mo., USA).

Male Zucker fa/fa rats [3] = assay: Repeated once-daily oral dosing: morning blood glucose and plasma insulin
Method: The parameters monitored were morning blood glucose and plasma insulin levels. In a day-night profile, glycemia and insulinaemia were monitored from day 16 to day 17. An OGTT was performed finally on day 21 to monitor blood glucose and plasma insulin kinetics to assess changes in glucose tolerance. Glibenclamide (DAB 1996; R011150/33372) was donated by Berlin-Chemie (Berlin, Germany). Male Zucker (fa/fa) rats of the body weight class of 300 g were purchased from Charles River (Sulzfeld, Germany).
Housing Conditions: Animals were kept single-housed under conventional conditions with controlled temperature (22±2° C.) on a 12/12 hours light/dark cycle (light on at 06:00 a.m.). Standard pellets (ssniff®, Soest, Germany) and tap water acidified with HCl were allowed ad libitum.
Catheterization of Carotid Artery: After one week of adaptation carotid catheters were implanted in the rats under general anesthesia (injection of 0.25 ml/kg i.p. Rompun® [2%], Bayer, Germany) and 0.5 ml/kg i.p. Velonarkon® (Arzneimittelwerk Dresden, Germany). The animals were allowed to recover for one week. The catheter was flushed with heparin-saline (100 IU/ml) three times per week.
Thereafter, the non-diabetic Wistar rats were treated orally once daily with RP (5 mg/kg b.w.) or TP (21.61 mg/kg b.w.) and the diabetic Zucker rats were treated orally once daily with RP (1 mg/kg b.w.) or TP (21.61 mg/kg b.w.) for 21 days at 05.00 p.m. (before regular food intake in the dark phase). The controls were given 1% cellulose solution orally (5 ml/kg). Blood samples were taken every morning at 07.30 a.m. from tail veins for measurement of blood glucose and plasma insulin. The last blood samples of this part of the program were taken at 07.30 a. m. on the 15th day to measure blood glucose and plasma insulin. The oral drug therapy was continued for one week. Recording the day-night profile under the above therapy blood glucose (Δt=3 h) and plasma insulin (Δt=3-6 h) were monitored from day 16 (at 05.00 p.m. beginning) to day 17 (at 02.00 p.m. end).
Blood glucose: Glucose levels were measured using the glucose oxidase procedure (Super G Glukosemeβgerät; Dr. Müller Gerätebau, Freital, Germany).
Plasma insulin: Insulin concentrations were assayed by the antibody RIA method (LINCO Research, Inc. St. Charles, Mo., USA).

COc1ccc(Cl)cc1C(=O)NCCc1ccc(S(=O)(=O)NC(=O)NC2CCCCC2)cc1 [glibenclamide, reference compound]
Mean blood glucose, day-night profile (Male Zucker fa/fa rats [1]; 02.00 p.m. next day, RP 1 mg/kg, TP 21.61 mg/kg orally once daily): 7.34 ± 0.77 mmol/L | Plasma insulin, day-night profile (Male Zucker fa/fa rats [1]; 02.00 p.m. the next day): 58.3 ± 7.3 ng/mL | Plasma insulin, day-night profile (Male Zucker fa/fa rats [1]; 05.00 a.m. (maximum)): 76.3 ± 8.6 ng/mL | Plasma insulin, day-night profile (Male Zucker fa/fa rats [1]; 05.00 p.m., RP 1 mg/kg, TP 21.61 mg/kg orally once daily): 50.0 ± 8.2 ng/mL | Plasma insulin, day-night profile (Male Zucker fa/fa rats [1]; 08.00 p.m.): 57.3 ± 8.2 ng/mL | Mean blood glucose, day-night profile (Male Zucker fa/fa rats [1]; 11.00 a.m., RP 1 mg/kg, TP 21.61 mg/kg orally once daily): 7.66 ± 1.22 mmol/L | Mean blood glucose, day-night profile (Male Zucker fa/fa rats [1]; 11.00 p.m., RP 1 mg/kg, TP 21.61 mg/kg orally once daily): 14.80 ± 1.46 mmol/L | Mean blood glucose, day-night profile (Male Zucker fa/fa rats [1]; day 16, 05.00 p.m. before drug application, RP 1 mg/kg, TP 21.61 mg/kg orally once daily): 7.96 ± 1.13 mmol/L | Increase of insulin output compared to the control (Male Zucker fa/fa rats [1]; obese Zucker rat, subchronic treatment): 27% | Glycemia at the last drug application (Male Zucker fa/fa rats [2]; 05.00 p.m., night before day 21): 8.81 ± 1.21 mmol/L | G-AUC in comparison to the placebo application (Male Zucker fa/fa rats [2]; day 21): increased | Blood glucose during OGTT (Male Zucker fa/fa rats [2]; day 21, 50 min): 16.33 ± 0.98 mmol/L | Blood glucose during OGTT (Male Zucker fa/fa rats [2]; day 21, 80 min): 16.24 ± 1.09 mmol/L | Blood glucose during OGTT (Male Zucker fa/fa rats [2]; day 21, 100 min): 15.13 ± 0.76 mmol/L | Blood glucose during OGTT (Male Zucker fa/fa rats [2]; day 21, 120 min): 14.81 ± 0.66 mmol/L | Glycemia after overnight fasting (basal, before OGTT) (Male Zucker fa/fa rats [2]; day 21, morning (07.30 a. m.)): 4.91 ± 0.37 mmol/L | Fasting plasma insulin at the beginning of the OGTT (Male Zucker fa/fa rats [2]; day 21, overnight fasting, listed as RP): ~12.5 ng/mL | Blood glucose increase after the glucose load (Male Zucker fa/fa rats [2]; day 21 OGTT): about 11 mmol | Plasma insulin after a glucose stimulus (Male Zucker fa/fa rats [2]; day 21 OGTT): remained mostly unchanged | Glucose area under the curve (G-AUC0-120 min) (Male Zucker fa/fa rats [2]; day 21 OGTT, CO-group 823±41): 1096 ± 76 mmol·min/L | Plasma insulin during 14 days in comparison to the control animals (Male Zucker fa/fa rats [3]; rat, in vivo): insulin increase to significantly higher concentrations than in control animals | Increase of morning blood glucose (Male Zucker fa/fa rats [3]; within two days of therapy): about 1.5 mmol/l

Reference: patent US20010051646A1, “Method for the improvement of islet signaling in diabetes mellitus and for its prevention” (priority 2000, published 2001)
